Experimental data published in the METLIN SMRT retention time set (Domingo-Almenara et al. 2019).

Experiment: gradient 5% acetonitrile 3 min, to 50% in 2 min, to 85% in 15 min, held 3 min, 100 µL/min
Conditions: column: Zorbax Extend-C18 2.1 x 50 mm; eluents: water / acetonitrile, 0.1% formic acid
Summary of the method: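 Standards, all pure, were combined into mixtures of ~100 molecules and run at 100 μL/min on a Zorbax Extend-C18 column (2.1 × 50 mm, 1.8 μm) with water and acetonitrile, each containing 0.1% formic acid. A coupled quadrupole time-of-flight mass spectrometer operated in positive and negative ionization mode. Retention time values come from computationally picked adduct peaks, each inspected manually.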

RP-LC retention time	Compound
620 s	CCCNC(=O)c1cc(=O)[nH]c2ccccc12
828 s	O=C(NC1CCN(c2cc(-c3cccs3)[nH]n2)C1)c1cccc(OC(F)(F)F)c1 (stereo not drawn)
894 s	COC(=O)C1=CN(c2ccc(Cl)cc2)c2ccc(F)cc2S1(=O)=O
584 s	O=C1NC(c2ccccc2)(C(F)(F)F)SC2=NCCCN12 (stereo not drawn)
836 s	COc1ccccc1-n1nnc(C(=O)N2CCc3ccccc32)c1-c1ccccn1
743 s	O=C1NC2(CCN(C(=O)Nc3cccc(F)c3)CC2)Oc2ccccc21
805 s	CCc1ccc(CNC(=O)c2cn(-c3ccc(-c4nc(C)no4)cn3)cn2)cc1
627 s	CC(NC(=O)Cn1c(=O)n(-c2ccc(F)cc2)c2ncccc21)c1ccccn1 (stereo not drawn)
883 s	O=C(NCCC1CCN(S(=O)(=O)c2ccccc2)CC1)Nc1ccc(F)cc1
917 s	CC(C)CCNC(=O)CSc1nc(N2CCc3ccccc3C2)nc2ccccc12
1420 s	COc1ccc(C(=O)N2c3nc(-c4ccccc4)nn3C3(CCCCC3)[C@@H]3CCCC[C@@H]32)cc1OC
764 s	O=C(NCCc1ccccc1)NCCc1ccsc1
693 s	O=C(NCCN1CCOCC1)C1CCN(c2ccc3nnc(-c4ccccc4F)n3n2)CC1
885 s	N#Cc1cnc2ccc(F)cc2c1N1CCC(C(=O)Nc2ccc(F)cc2)CC1
894 s	Cn1nc(-c2nnc(-c3ccc(F)cc3)o2)c2c1CCN(S(=O)(=O)c1ccc(C#N)cc1)C2
618 s	CC(NCC(O)COc1c(F)cc(Br)cc1F)c1ccccc1 (stereo not drawn)
866 s	O=C(c1c[nH]c2ccccc12)N1CCCCC1c1nc(C2CC2)no1 (stereo not drawn)
572 s	CCOC(=O)C1=C(N)Oc2cc(C)n(CCN(C)C)c(=O)c2C1c1ccccc1 (stereo not drawn)
763 s	Cc1ccc(CNC(=O)c2ccc(CN3CCN(C(C)C)C(=O)C3=O)cc2)cc1C
791 s	CCSc1ccccc1C(=O)NCCCn1cccc1
794 s	COc1cccc(S(=O)(=O)N2CCC(c3nc(C(=O)N4CCOCC4)c(C)o3)CC2)c1
829 s	O=C(N[C@H]1C[C@@H]2C[C@H]1N(C(=O)COc1cccc(Cl)c1)C2)c1ccccc1

RP-LC retention time	Compound
750 s	O=C(Nc1ccccc1)N1CCN(c2ncccc2-c2nnc(C3CC3)o2)CC1
1100 s	COc1ccccc1-c1noc(Cn2cnc3c(cnn3-c3ccc(C)cc3)c2=O)n1
627 s	O=C(CN1C(=O)CCSc2ccccc21)Nc1ccc2c(c1)OCO2
1030 s	Cc1ccccc1OCC(=O)Nc1ccc2c(c1)N(S(=O)(=O)c1ccccc1)CCC2
695 s	CNC(=O)CCc1nc2ccccc2n(CC(=O)NCc2ccc(C)cc2)c1=O
645 s	CCOCC(=O)Nc1ccc(-c2ccc(S(C)(=O)=O)nn2)cc1
1250 s	Cc1c(C(=O)N2CCC(C)CC2)cnn1-c1ccc(-c2nc(C(C)(C)C)no2)cn1
690 s	O=C(C1CCCN(c2ncnc3c2nc2n3CCCCC2)C1)N1CCN(c2ncccn2)CC1 (stereo not drawn)
809 s	Cc1ccc(Cl)cc1N(C)C(=O)Cn1cnc2nc3c(cc2c1=O)CCCC3
661 s	O=C(CN1Cc2ccccc2C1=O)N[C@@H](Cc1c[nH]c2ccccc12)C(=O)O
753 s	O=C(NCC1CCN(C(=O)COc2ccccc2)CC1)c1ccccc1C(F)(F)F
736 s	O=C(NCc1ccc2c(c1)OCO2)C1CCCN(c2cnc3ccccc3n2)C1 (stereo not drawn)
801 s	CC(C)NC(=O)CCn1c(=O)c2ccccc2n2c(=O)n(Cc3ccccc3)nc12
861 s	CCS(=O)(=O)N1CC(=O)N(c2cc(C)ccc2C)C(C)(C(=O)NCc2ccc(F)cc2)C1 (stereo not drawn)
939 s	CCCn1ccc2sc(C)c(C(=O)NCc3cccc(OCC)c3)c2c1=O
710 s	O=C(CNC(=O)Cc1ccccc1)NCC(=O)N1CCCc2ccccc21
872 s	O=C(CSc1nnc(-c2ccccc2F)o1)N1CCCc2ccccc21
942 s	Cc1ccc2nc3c(C(=O)NC4CC4)cccn3c(=O)c2c1
861 s	O=C(NC1(c2nc(-c3ccncc3)no2)CCCCC1)C1CCCC1
905 s	CC(C)CCNC(=O)c1ccc(Cn2c(C(F)(F)F)nc3cccnc32)cc1
574 s	O=C(CCC[C@@H]1[C@H]2CCCN3CCC[C@@H](CN1C(=O)c1ccccc1)[C@@H]23)NC1CCS(=O)(=O)C1 (stereo partly drawn)
856 s	COc1ccc(-c2cc(C(=O)N3CCCC3c3c(C)noc3C)on2)cc1 (stereo not drawn)

RP-LC retention time	Compound
910 s	O=C(NCc1ccc(-c2nc(-c3cccs3)no2)s1)C1CCC1
693 s	Cc1oc(-c2[nH]ncc2C(=O)N(C)C)cc1S(=O)(=O)NCc1ccccc1Cl
1140 s	Cc1ccc(-c2ncc(NC(=O)c3ccc(Cl)s3)cn2)cc1
577 s	O=C(CCCn1ncn2c(cc3occc32)c1=O)N1CCN(c2ccccn2)CC1
1120 s	Cc1nn(C(C)C(=O)Nc2ccc(Cl)cn2)c(=O)c2c(-n3cccc3)n(-c3ccccc3)nc12 (stereo not drawn)
844 s	COC(=O)C1=C(C)NC(C)=C(C(=O)OC2CCCN(Cc3ccccc3)C2)C1c1cccc([N+](=O)[O-])c1 (stereo not drawn)
693 s	CCN1CCC(N(Cc2cccs2)C(=O)Nc2cccc(Br)c2)CC1
780 s	Cc1nn(-c2ccccc2)c2c1N(CC(=O)NC1CCCC1)C(=O)CS2
589 s	CCn1cc(CCN2CCN(C(=O)c3cccs3)CC2)c2cccnc21
579 s	COc1ccc(N2C(=O)CC(N3CCC(C)CC3)C2=O)cc1 (stereo not drawn)
593 s	Cc1nn(-c2ccc(C(=O)N3CCN(C)CC3)cc2)c2c1C(=O)CC(C)(C)C2
746 s	CC(C)OCCCNC(=O)CN1C(=O)C2CCCCN2c2ccc(C(=O)N3CCCC3)cc21 (stereo not drawn)
938 s	Cc1nn(-c2ccccc2)c(C)c1S(=O)(=O)N1CCC(C(=O)Nc2ccc(C#N)cc2)CC1
918 s	CCCN1C(=O)c2c(C(=O)NCCc3cccc(C)c3)ncn2CC1(C)C(=O)NC1CCCC1 (stereo not drawn)
1000 s	COc1cccc(CNC(=O)N2c3ccccc3CC2c2nc(C(C)C)no2)c1 (stereo not drawn)
700 s	CCOc1cc(CNc2ccc3[nH]c(=O)[nH]c3c2)cc(Cl)c1OCC
766 s	COC(=O)c1ncn2c1C(=O)N(Cc1ccc(C)cc1)C(C)(C(=O)NC1CCCC1)C2 (stereo not drawn)
1110 s	CCCN1C(=O)c2cc(S(=O)(=O)N3CCCCC3)ccc2Oc2cccnc21
657 s	CO[C@H]1C(=O)N(C(C)C)[C@H]1C1CCN(C(=O)C2CC2)CC1
595 s	CCCN1CCN(c2cc(C(=O)O)c3cc(NS(=O)(=O)c4ccccc4Cl)ccc3n2)CC1
665 s	CCn1c(=O)c(C(=O)N2CCCC2)nc2ccccc21
1240 s	COc1ccccc1-c1nc(Cn2nnc(-c3nc(-c4ccc(C)c(C)c4)no3)c2C)c(C)o1

RP-LC retention time	Compound
873 s	CCCCNC(=O)CN1C(=O)C2CCCCN2c2ccc(S(=O)(=O)N3CCCC3)cc21 (stereo not drawn)
753 s	CCCN(C)c1nccn2c(=O)n(CC(=O)Nc3cccc(C(F)(F)F)c3)nc12
938 s	COc1ccc(NC(=O)Cn2c(=O)cc(-c3nc(C(C)C)no3)c3ccccc32)cc1
1000 s	COc1cc(C2OC(c3ccc(Br)cc3)=NN2C(C)=O)ccc1OC(C)=O (stereo not drawn)
728 s	N#CC1(C(=O)NCCOc2ccc(F)cc2)CC1
838 s	C=CCn1c(C)c(CC(=O)Nc2ccc(F)c(F)c2)c(=O)n2nc(-c3ccc(C)cc3)nc12
618 s	Cn1c(C(=O)Nc2ccc(N3CCOCC3)cc2)cc2c1CCN(Cc1ccccc1)C2
973 s	CCOC(=O)c1c(C)c(C(=O)CN(CC2CCCO2)C(=O)c2ccc(F)cc2)c(C)n1CC (stereo not drawn)
743 s	Cc1c(C(=O)NCC(C)C)c(C)n2cnn(CC(=O)NCCc3ccccc3)c(=O)c12
898 s	O=C(Cn1c(=O)oc2ccc(Cl)cc21)N1CCc2ccccc21
804 s	O=C(NCC(F)(F)F)C(=O)NCC1(c2cccs2)CCCCC1
995 s	Cc1nn(-c2ccc(Cl)cc2)c(C)c1S(=O)(=O)N1CCC(C(=O)N2CCCCC2)CC1
950 s	Cc1ccc(NC(=O)Cn2nc(C(=O)N3CCCC3)c3ccccc32)cc1Cl
900 s	O=C(c1cccc(Cl)c1)N1CCN(C(=O)c2nnn3c2COC(c2ccccc2)C3)CC1 (stereo not drawn)
578 s	COc1ccccc1CN[C@H]1CCCN[C@H]1c1ccccc1
966 s	CC1=NS(=O)(=O)N(C)C=C1C(=O)OCCC(C)C
1240 s	CCCN1CCCCc2cc(C(=O)N(CC)C(C)C)sc21
768 s	CCn1ccc2c(cc(C(=O)Nc3cccc(F)c3)n2C)c1=O
1080 s	Cc1cccc(CNC(=O)CN2C(=O)C3CCCCN3c3ccc(S(=O)(=O)N4CCCC4)cc32)c1 (stereo not drawn)
621 s	CCN1C(=O)CN(C(=O)c2ccsc2)CC12CCOCC2
1150 s	O=C(c1cc(Cl)ccc1F)N1CCc2nc(-c3ccc(Cl)cc3)ncc2C1

Compound	RP-LC retention time
CCn1cc(C(=O)NCc2ccc(F)cc2)c2cccnc21	771 s
